In paper PMC6757289, “Design and Characterization of SGK3-PROTAC1, an Isoform Specific SGK3 Kinase PROTAC Degrader” (ACS Chemical Biology, 2019) one finds remaining activity data, which are given here for four compounds.

Holding throughout (assay): kinase profiling panel
Format in all cases: biochemical
Common to all, as to details: read-out: % Activity Remaining

One experiment deals with T1, CHK1 (Homo sapiens, UniProt O14757).
T1 sequence (O14757 1-476): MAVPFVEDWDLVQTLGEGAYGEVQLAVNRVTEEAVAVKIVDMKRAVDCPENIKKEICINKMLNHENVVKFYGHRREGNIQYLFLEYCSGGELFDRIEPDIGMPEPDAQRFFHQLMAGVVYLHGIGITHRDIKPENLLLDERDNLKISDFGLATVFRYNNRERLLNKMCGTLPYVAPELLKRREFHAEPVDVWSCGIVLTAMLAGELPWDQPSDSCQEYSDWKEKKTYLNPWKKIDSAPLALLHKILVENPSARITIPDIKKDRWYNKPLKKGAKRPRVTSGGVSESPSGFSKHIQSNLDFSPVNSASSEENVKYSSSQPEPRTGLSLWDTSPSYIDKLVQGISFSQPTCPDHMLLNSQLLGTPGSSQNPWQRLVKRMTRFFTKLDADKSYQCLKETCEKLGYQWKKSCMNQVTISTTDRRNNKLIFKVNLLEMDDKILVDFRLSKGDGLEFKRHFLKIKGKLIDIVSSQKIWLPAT
From the text: (§1) Protein kinase profiling against a Dundee panel of 140 protein kinases was undertaken at the International Centre for Protein Kinase Profiling. The result for each kinase was presented as a mean kinase activity of the reaction taken in triplicate relative to a control sample treated with DMSO. Assay conditions and abbreviations are available at http://www.kinase-screen.mrc.ac.uk.

The next experiment addresses PDGFRA (Homo sapiens, UniProt P16234).
Excerpt: as §1

In the next experiment the target is T2, GCK (Homo sapiens, UniProt Q12851).
T2 sequence (Q12851 1-820): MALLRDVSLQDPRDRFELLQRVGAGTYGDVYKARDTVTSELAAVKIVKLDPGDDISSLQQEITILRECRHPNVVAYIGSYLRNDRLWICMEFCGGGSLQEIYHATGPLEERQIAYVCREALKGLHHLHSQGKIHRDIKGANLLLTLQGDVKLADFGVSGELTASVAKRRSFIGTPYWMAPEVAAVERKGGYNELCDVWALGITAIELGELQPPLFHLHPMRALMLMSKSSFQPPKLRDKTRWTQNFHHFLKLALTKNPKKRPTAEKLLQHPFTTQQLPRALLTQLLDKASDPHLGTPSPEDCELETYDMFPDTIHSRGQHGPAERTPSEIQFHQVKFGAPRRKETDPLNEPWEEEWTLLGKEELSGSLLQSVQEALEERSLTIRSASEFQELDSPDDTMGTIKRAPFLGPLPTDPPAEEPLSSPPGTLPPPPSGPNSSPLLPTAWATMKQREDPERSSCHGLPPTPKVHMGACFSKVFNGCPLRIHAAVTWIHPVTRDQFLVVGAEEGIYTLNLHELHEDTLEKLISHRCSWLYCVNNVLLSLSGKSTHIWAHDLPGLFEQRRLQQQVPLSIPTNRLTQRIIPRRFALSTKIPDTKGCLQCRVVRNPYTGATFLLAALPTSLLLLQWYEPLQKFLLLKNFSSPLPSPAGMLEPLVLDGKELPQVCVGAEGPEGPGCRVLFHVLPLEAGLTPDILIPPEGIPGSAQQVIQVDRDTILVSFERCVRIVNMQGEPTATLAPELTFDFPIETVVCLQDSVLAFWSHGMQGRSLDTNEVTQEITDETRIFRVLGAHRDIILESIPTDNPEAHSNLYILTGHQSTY
Excerpt: as §1

A further experiment addresses T3, EPH-B3 (Homo sapiens, UniProt P54753).
T3 sequence (P54753 34-998): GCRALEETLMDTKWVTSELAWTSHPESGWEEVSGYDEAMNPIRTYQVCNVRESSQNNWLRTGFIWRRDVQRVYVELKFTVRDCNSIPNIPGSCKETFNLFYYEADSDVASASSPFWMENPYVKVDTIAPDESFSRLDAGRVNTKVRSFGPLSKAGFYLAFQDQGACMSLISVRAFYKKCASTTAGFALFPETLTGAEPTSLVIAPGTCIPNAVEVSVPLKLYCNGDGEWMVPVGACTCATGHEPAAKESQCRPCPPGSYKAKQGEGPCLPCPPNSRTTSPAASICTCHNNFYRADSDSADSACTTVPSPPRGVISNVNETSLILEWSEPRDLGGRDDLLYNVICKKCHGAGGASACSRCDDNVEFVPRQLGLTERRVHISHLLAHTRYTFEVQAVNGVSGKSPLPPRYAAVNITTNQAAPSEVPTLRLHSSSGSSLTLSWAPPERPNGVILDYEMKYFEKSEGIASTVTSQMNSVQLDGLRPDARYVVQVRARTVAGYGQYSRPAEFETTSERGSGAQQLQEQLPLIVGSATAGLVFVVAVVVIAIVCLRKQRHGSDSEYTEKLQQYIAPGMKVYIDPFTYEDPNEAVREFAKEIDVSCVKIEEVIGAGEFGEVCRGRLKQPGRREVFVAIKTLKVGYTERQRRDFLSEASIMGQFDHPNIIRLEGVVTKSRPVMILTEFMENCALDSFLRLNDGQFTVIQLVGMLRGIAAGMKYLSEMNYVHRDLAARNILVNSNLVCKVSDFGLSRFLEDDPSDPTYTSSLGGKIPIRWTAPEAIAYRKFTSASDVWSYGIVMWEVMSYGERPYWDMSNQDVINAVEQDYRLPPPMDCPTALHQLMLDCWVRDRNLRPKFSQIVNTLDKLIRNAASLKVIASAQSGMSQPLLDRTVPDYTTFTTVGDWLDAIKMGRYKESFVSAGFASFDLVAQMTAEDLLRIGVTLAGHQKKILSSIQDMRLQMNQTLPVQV
Excerpt: as §1

SMILES strings stand for the structures. Read-outs that look alike come from different tables or passages of the source.

PDGFRA, sequence (P16234 24-1089): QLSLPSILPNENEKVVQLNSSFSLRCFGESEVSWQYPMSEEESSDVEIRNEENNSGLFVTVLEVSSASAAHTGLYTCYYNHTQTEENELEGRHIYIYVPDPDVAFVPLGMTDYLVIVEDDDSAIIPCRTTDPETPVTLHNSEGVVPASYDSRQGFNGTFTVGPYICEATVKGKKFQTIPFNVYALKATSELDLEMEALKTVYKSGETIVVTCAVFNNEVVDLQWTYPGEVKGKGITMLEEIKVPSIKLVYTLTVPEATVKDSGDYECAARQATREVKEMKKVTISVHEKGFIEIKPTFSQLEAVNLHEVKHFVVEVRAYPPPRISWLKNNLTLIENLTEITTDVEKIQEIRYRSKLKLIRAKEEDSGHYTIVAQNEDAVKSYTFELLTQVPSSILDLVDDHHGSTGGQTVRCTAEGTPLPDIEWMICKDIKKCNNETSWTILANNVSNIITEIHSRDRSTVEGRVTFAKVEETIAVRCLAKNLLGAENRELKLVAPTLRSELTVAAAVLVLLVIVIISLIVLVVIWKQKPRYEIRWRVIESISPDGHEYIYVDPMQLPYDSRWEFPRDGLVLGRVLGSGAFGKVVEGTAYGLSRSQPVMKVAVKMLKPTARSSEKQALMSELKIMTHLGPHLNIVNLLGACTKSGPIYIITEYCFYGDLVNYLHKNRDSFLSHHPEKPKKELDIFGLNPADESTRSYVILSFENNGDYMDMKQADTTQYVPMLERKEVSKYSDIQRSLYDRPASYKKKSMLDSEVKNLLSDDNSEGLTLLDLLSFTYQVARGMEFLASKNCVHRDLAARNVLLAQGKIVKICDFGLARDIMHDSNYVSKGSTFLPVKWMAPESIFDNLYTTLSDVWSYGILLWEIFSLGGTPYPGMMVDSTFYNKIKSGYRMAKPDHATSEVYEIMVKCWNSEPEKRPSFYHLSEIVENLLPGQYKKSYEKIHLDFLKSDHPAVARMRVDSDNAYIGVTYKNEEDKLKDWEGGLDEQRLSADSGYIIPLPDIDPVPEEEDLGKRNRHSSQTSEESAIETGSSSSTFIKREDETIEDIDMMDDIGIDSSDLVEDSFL

For orientation: remaining activity means the signal under treatment as a percentage of the control signal. In the case of `COc1ccc(Cl)c(S(=O)(=O)Nc2ccc(-c3nc(OC[C@H]4CNCCO4)c4c(C)n[nH]c4n3)cc2)c1` [290-R, reference compound], the remaining activity at 1 µM on CHK1 worked out at 95%; at PDGFRA, 91%; on GCK, 90%; at EPH-B3, 104%.
With `Cc1ccc(F)c(S(=O)(=O)Nc2ccc(-c3nc(OC[C@H]4CNCCO4)c4cn[nH]c4n3)cc2)c1` [308-R, reference compound], the remaining activity at 1 µM was found to be 109% on CHK1, 115% at PDGFRA, 80% on GCK and 64% on EPH-B3.
As for `Cc1ccc(F)c(S(=O)(=O)Nc2ccc(-c3nc(OC[C@H]4CN(CCCCCCOCCOCCOCC(=O)N[C@H](C(=O)N5C[C@H](O)C[C@H]5C(=O)NCc5ccc(-c6scnc6C)cc5)C(C)(C)C)CCO4)c4cn[nH]c4n3)cc2)c1` [SGK3-PROTAC1], the remaining activity at 1 µM came out at 111% on CHK1 (1 µM), 101% on PDGFRA (1 µM), 99% at GCK (1 µM) and 92% on EPH-B3 (1 µM).
`Cc1ccc(F)c(S(=O)(=O)Nc2ccc(-c3nc(OC[C@H]4CN(CCCCCCOCCOCCOCC(=O)N[C@H](C(=O)N5C[C@@H](O)C[C@H]5C(=O)NCc5ccc(-c6scnc6C)cc5)C(C)(C)C)CCO4)c4cn[nH]c4n3)cc2)c1` [cisSGK3-PROTAC1]: the remaining activity at 1 µM worked out at 126% at CHK1 (1 µM), 95% on PDGFRA (1 µM), 96% at GCK (1 µM) and 104% on EPH-B3 (1 µM).
